Molecules are shown by their SMILES. Values joined by “and” are separate entries in the source; they are usually repeats but may differ in a detail not shown here. Identical values can stand only once.

Here are results for 17 compounds from US4507315A, “Hypoglycaemic and hypolipidaemic benzamide substituted (1H-) imidazole derivatives and compositions” (May & Baker Limited, priority 1982, dated 1985).

Type in all cases: in vivo
For test [1], the system named is Diabetic mice (strain C 57, black, MRI derived Obese/Obese). In words: Hypoglycaemic Activity in Diabetic Mice (oral, 3 days). As to conditions: for change in vivo at 200 mg/kg / change in blood glucose compared with control: 200 mg/kg body weight per day; for change in vivo at 30 mg/kg: 30 mg/kg body weight per day; for change in vivo at 100 mg/kg: 100 mg/kg body weight per day. The method, then: Diabetic mice (strain C 57, black, MRI derived Obese/Obese) of either sex each weighing between 45 and 70 g were given the test compound orally in tragacanth mucilage at a dose of 5,10,30,100,200 or 500 mg/kg body weight per day for 3 days. Three hours after the last dose the animals were killed with carbon dioxide and bled by cardiac puncture. The blood glucose levels were assessed by the glucose-oxidase method of GOD-Perid. Control groups (given doses of unmedicated tragacanth mucilage) were included with each test. The percentage reduction in the concentration of blood glucose was calculated by comparison with the simultaneous controls, for each of the test compounds used.

The subject of test [2] is Male Wistar rats. In words: Hypolipidaemic Activity in Rats. As to conditions: oral, last 3 days of 10-day cholesterol/cholic acid diet. As to the method: Male Wistar rats each weighing between 120 and 150 g were caged in groups of eight and fed a pelleted diet incorporating 0.5% w/w cholesterol and 0.25% w/w cholic acid for 10 days. For the last 3 days of that period the test compound was administered orally at a dose of 30, 100 or 200 mg/kg body weight per day in tragacanth mucilage.
At noon on day 10 the animals were killed by inhalation of carbon dioxide from solid carbon dioxide. A sample of blood was removed by cardiac puncture and the serum cholesterol and serum triglycerides were analysed by means of an auto-analyser.
Control group (receiving only doses of unmedicated tragacanth mucilage) were included with each test.
The percentage reductions in the concentrations of serum cholesterol and serum triglycerides were calculated by comparison with the simultaneous controls, for each concentration of the test compound used.

In test [3] the test system is Diabetic mice (strain C 57, black, MRI derived Obese/Obese). In words: Hypoglycaemic Activity in Diabetic Mice (oral, 8 days, W hydrochloride). As to conditions: male diabetic mice. The method, then:
Groups of diabetic mice (strain C 57, black, MRI derived Obese/Obese) of male sex of mean weight between 43 and 46 g were given the test compound W hydrochloride orally in tragacanth mucilage at a dose of 2, 5 or 100 mg/kg body weight per day for 8 days. Three hours after the last dose the animals were bled from the tail vein. The blood glucose levels were assessed by the glucose-oxidase method of GOD-Perid. Control groups (given doses of unmedicated tragacanth mucilage) were included with each test. The percentage reduction in the concentration of blood glucose was calculated by comparison with the simultaneous controls.

Test [4] has as its system Rats (Sprague-Dawley). In words: Hypoglycaemic Activity in Fasted Rats. Particulars: 100 mg/kg body weight per day, oral, 4 days, fasted male Sprague-Dawley rats. The method, then: Rats (Sprague-Dawley) of male sex each weighing between 171 and 174 g were given the test compound W hydrochloride orally in tragacanth mucilage at a dose of 100 mg/kg body weight per day for 4 days. Four hours after the third dose the animals were kept without food up to and beyond the fourth dose. Three hours after the last dose the animals were bled from the tail vein. The blood glucose levels were assessed by the glucose-oxidase method of GOD-Perid. Control groups (given doses of unmedicated tragacanth mucilage) were included with each test. The percentage reduction in the concentration of blood glucose was calculated by comparison with the simultaneous controls.

Setting [5] is: Mus musculus, po, 72 h, read-out: change in blood glucose compared with control.

Take `CC(CCNC(=O)c1ccccc1NS(=O)(=O)c1ccc(Cl)cc1)n1ccnc1` (racemic) [WW, (±)-2-(4-chlorobenzenesulphonamido)-N-(3-imidazol-1-ylbutyl)benzamide]: the change in vivo at 200 mg/kg in test [1] (setting [5]) is -24%.
In the case of `O=C(NCCCn1ccnc1)c1ccccc1NS(=O)(=O)c1ccc(Cl)cc1` [A, 2-(4-chlorobenzenesulphonamido)-N-(3-imidazol-1-ylpropyl)benzamide], in test [1] (setting [5]), the change in vivo at 30 mg/kg is -13% and the change in vivo at 100 mg/kg is -49%. For the same compound, in test [2] (30 mg/kg body weight per day), the “% change in serum cholesterol compared with control” value (“% change in serum cholesterol” for short) was -13% and the “% change in serum triglycerides compared with control” value (“% change in serum triglycerides” for short) was “+67%”. In addition, in test [2] (100 mg/kg body weight per day), the “% change in serum cholesterol” value was -35% and the “% change in serum triglycerides” value is “+36%”. Besides, in test [2] (200 mg/kg body weight per day), the “% change in serum cholesterol” value was -82% and -83%.
Consider `O=C(NCCCn1ccnc1)c1ccccc1NS(=O)(=O)c1cccc(Cl)c1` [B, 2-(3-chlorobenzenesulphonamido)-N-(3-imidazol-1-ylpropyl)benzamide], for which, in test [1] (setting [5]), the change in vivo at 200 mg/kg is -60%.
Take `O=C(NCCCn1ccnc1)c1ccccc1NS(=O)(=O)c1ccc(Br)cc1` [D, 2-(4-bromobenzenesulphonamido)-N-(3-imidazol-1-ylpropyl)benzamide]: in test [2] (200 mg/kg body weight per day), the “% change in serum cholesterol” value is listed as -63% and the “% change in serum triglycerides” value is -59%.
As for `O=C(NCCCn1ccnc1)c1ccccc1NS(=O)(=O)c1ccccc1` [E, 2-(benzenesulphonamido)-N-(3-imidazol-1-ylpropyl)benzamide], in test [2] (200 mg/kg body weight per day), the “% change in serum cholesterol” value is listed as -31% and the “% change in serum triglycerides” value is “+55%”.
Regarding `Cc1ccc(S(=O)(=O)Nc2ccccc2C(=O)NCCCn2ccnc2)cc1` [F, 2-(4-methylbenzenesulphonamido)-N-(3-imidazol-1-yl-propyl)benzamide], the change in vivo at 200 mg/kg in test [1] (setting [5]) is -32%. In test [2] (200 mg/kg body weight per day), the “% change in serum cholesterol” value is recorded as -72% and the “% change in serum triglycerides” value is -60%.
For `Cc1ccc(S(=O)(=O)Nc2ccccc2C(=O)NCCCn2ccnc2)cc1C` [G, 2-(3,4-dimethylbenzenesulphonamido)-N-(3-imidazol-1-ylpropyl)benzamide], the change in vivo at 200 mg/kg in test [1] (setting [5]) is -25%.
For the compound `O=C(NCCCn1ccnc1)c1cc(Cl)ccc1NS(=O)(=O)c1ccc(Cl)cc1` [I, 5-chloro-2-(4-chlorobenzenesulphonamido)-N-(3-imidazol-1-ylpropyl)benzamide], the change in vivo at 200 mg/kg in test [1] (setting [5]) was -57%.
For the compound `O=C(NCCCn1ccnc1)c1ccccc1NS(=O)(=O)c1cc(Cl)ccc1Cl` [J, 2-(2,5-dichlorobenzenesulphonamido)-N-(3-imidazol-1-ylpropyl)benzamide], the change in vivo at 200 mg/kg in test [1] (setting [5]) is -42%.
For `Cc1cn(CCCNC(=O)c2ccccc2NS(=O)(=O)c2ccc(Cl)cc2)cn1` [N, 2-(4-chlorobenzenesulphonamido)-N-[3-(4-methylimidazol-1-yl)propyl]benzamide], the change in vivo at 200 mg/kg in test [1] (setting [5]) is -48%.
For the compound `O=C(NCCCn1ccnc1)c1ccccc1NS(=O)(=O)c1ccc(F)cc1F` [OO, 2-(2,4-difluorobenzenesulphonamido)-N-(3-imidazol-1-ylpropyl)benzamide], the change in vivo at 200 mg/kg in test [1] (setting [5]) is -35%.
As to `Cc1ccccc1S(=O)(=O)Nc1ccccc1C(=O)NCCCn1ccnc1` [QQ, 2-(2-methylbenzenesulphonamido)-N-(3-imidazol-1-ylpropyl)benzamide], in test [1] (setting [5]), the change in vivo at 200 mg/kg was -43%.
In the case of `O=C(NCCn1ccnc1)c1ccccc1NS(=O)(=O)c1ccc(Cl)cc1` [VV, 2-(4-chlorobenzenesulphonamido)-N-(2-imidazol-1-ylethyl)benzamide], the change in vivo at 200 mg/kg in test [1] (setting [5]) was -53%.
With `Cl.O=C(NCCCn1ccnc1)c1ccccc1NS(=O)(=O)c1cccc(C(F)(F)F)c1` [W hydrochloride, 2-(3-trifluoromethylbenzenesulphonamido)-N-(3-imidazol-1-ylpropyl)benzamide hydrochloride], the “% change in blood glucose compared with control” value in test [3] (2 mg/kg body weight per day) is recorded as -25%; in test [3] (5 mg/kg body weight per day) it was -28%; in test [3] (100 mg/kg body weight per day), -50%; in test [4], -26%. In addition, in test [1], the “change in blood glucose compared with control” value is given as -62%. Further, the change in vivo at 5 mg/kg in test [1] (Mus musculus, po, 72 h, 5 mg/kg body weight per day, read-out: change in blood glucose compared with control) was -25%. Besides, the change in vivo at 10 mg/kg in test [1] (Mus musculus, po, 72 h, 10 mg/kg body weight per day, read-out: change in blood glucose compared with control) is -29%. Also, the change in vivo at 30 mg/kg in test [1] (setting [5]) is -58%. Further, the change in vivo at 100 mg/kg in test [1] (setting [5]) is -50%. For the same compound, the change in vivo at 500 mg/kg in test [1] (Mus musculus, po, 72 h, 500 mg/kg body weight per day, read-out: change in blood glucose compared with control) was -46%.
In the case of `O=C(NCCCn1ccnc1)c1ccccc1NS(=O)(=O)c1cccc(C(F)(F)F)c1` [W, 2-(3-trifluoromethylbenzenesulphonamido)-N-(3-imidazol-1-ylpropyl)benzamide], the “change in blood glucose compared with control” value in test [1] is given as -68%.
Take `O=C(NCCCn1ccnc1)c1ccccc1NS(=O)(=O)c1ccc(Cl)c(Cl)c1` [X, 2-(3,4-dichlorobenzenesulphonamido)-N-(3-imidazol-1-ylpropyl)benzamide]: in test [1] (setting [5]), the change in vivo at 200 mg/kg is -58%.
Turning to `O=C(NCCCn1ccnc1)c1ccccc1NS(=O)(=O)c1ccc(Cl)cc1Cl` [Y, 2-(2,4-dichlorobenzenesulphonamido)-N-(3-imidazol-1-ylpropyl)benzamide], the change in vivo at 200 mg/kg in test [1] (setting [5]) was -51%.
